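Test compounds were applied to cells in 96-well plates for 48 hours at 5 doses. Abbreviation: GI50, concentration required for 50% inhibition of growth. TGI denotes the concentration required for complete inhibition of growth.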
Columns and labels:
Experiment in all cases: growth of human tumour cells (NCI), 48 h; in the data active means GI50 below about 0.43 µM; inactive means the rest
A549 NSCLC = system: A549 NSCLC
HOP-62 NSCLC = system: HOP-62 NSCLC
ACHN renal = system: ACHN renal
PC-3 prostate = system: PC-3 prostate
SNB-75 CNS = system: SNB-75 CNS
SN12C renal = system: SN12C renal
EKVX NSCLC = system: EKVX NSCLC
HCT-15 colon = system: HCT-15 colon
MDA-MB-435 = system: MDA-MB-435
UACC-257 melanoma = system: UACC-257 melanoma
NCI-H226 lung = system: NCI-H226 lung
MALME-3M melanoma = system: MALME-3M melanoma
HCT-116 colon = system: HCT-116 colon
OVCAR-5 ovarian = system: OVCAR-5 ovarian
OVCAR-4 ovarian = system: OVCAR-4 ovarian
SF-268 CNS = system: SF-268 CNS
SK-MEL-5 melanoma = system: SK-MEL-5 melanoma
DU-145 prostate = system: DU-145 prostate
SK-OV-3 ovarian = system: SK-OV-3 ovarian
BT-549 breast = system: BT-549 breast
TK-10 renal = system: TK-10 renal
LOX IMVI melanoma = system: LOX IMVI melanoma
SNB-19 CNS = system: SNB-19 CNS
MOLT-4 leukemia = system: MOLT-4 leukemia
SW-620 colon = system: SW-620 colon
UO-31 renal = system: UO-31 renal
RXF 393 renal = system: RXF 393 renal
HCC-2998 colon = system: HCC-2998 colon
SK-MEL-2 melanoma = system: SK-MEL-2 melanoma
NCI/ADR-RES ovarian = system: NCI/ADR-RES ovarian
SF-539 CNS = system: SF-539 CNS
HS 578T breast = system: HS 578T breast
SK-MEL-28 melanoma = system: SK-MEL-28 melanoma
CAKI-1 renal = system: CAKI-1 renal
MCF7 breast = system: MCF7 breast
COLO 205 colon = system: COLO 205 colon
HL-60(TB) leukemia = system: HL-60(TB) leukemia
KM12 colon = system: KM12 colon
OVCAR-3 ovarian = system: OVCAR-3 ovarian
CCRF-CEM leukemia = system: CCRF-CEM leukemia
HOP-92 NSCLC = system: HOP-92 NSCLC
HT29 colon = system: HT29 colon
M14 melanoma = system: M14 melanoma
RPMI-8226 leukemia = system: RPMI-8226 leukemia
K-562 leukemia = system: K-562 leukemia
A498 renal = system: A498 renal
MDA-N = system: MDA-N
SF-295 CNS = system: SF-295 CNS
OVCAR-8 ovarian = system: OVCAR-8 ovarian
786-0 renal = system: 786-0 renal
NCI-H460 lung = system: NCI-H460 lung
U251 CNS = system: U251 CNS
MDA-MB-231 breast = system: MDA-MB-231 breast
UACC-62 melanoma = system: UACC-62 melanoma
NCI-H23 lung = system: NCI-H23 lung
T-47D breast = system: T-47D breast
IGROV1 ovarian = system: IGROV1 ovarian
NCI-H522 lung = system: NCI-H522 lung
SR leukemia = system: SR leukemia

OC1CCN2Cc3ccccc3N=C12 (stereo unspecified)
> 100 µM: TGI (A549 NSCLC) | TGI (HOP-62 NSCLC) | TGI (ACHN renal) | TGI (PC-3 prostate) | TGI (SNB-75 CNS) | TGI (SN12C renal) | TGI (EKVX NSCLC) | TGI (HCT-15 colon) | TGI (MDA-MB-435) | TGI (UACC-257 melanoma) | TGI (NCI-H226 lung) | TGI (MALME-3M melanoma) | TGI (HCT-116 colon) | TGI (OVCAR-5 ovarian) | TGI (OVCAR-4 ovarian) | TGI (SF-268 CNS) | TGI (SK-MEL-5 melanoma) | TGI (DU-145 prostate) | TGI (SK-OV-3 ovarian) | TGI (BT-549 breast) | TGI (TK-10 renal) | TGI (LOX IMVI melanoma) | TGI (SNB-19 CNS) | TGI (MOLT-4 leukemia) | TGI (SW-620 colon) | TGI (UO-31 renal) | TGI (RXF 393 renal) | TGI (HCC-2998 colon) | TGI (SK-MEL-2 melanoma) | TGI (NCI/ADR-RES ovarian) | TGI (SF-539 CNS) | TGI (HS 578T breast) | TGI (SK-MEL-28 melanoma) | TGI (CAKI-1 renal) | TGI (MCF7 breast) | TGI (COLO 205 colon) | TGI (HL-60(TB) leukemia) | TGI (KM12 colon) | TGI (OVCAR-3 ovarian) | TGI (CCRF-CEM leukemia) | TGI (HOP-92 NSCLC) | TGI (HT29 colon) | TGI (M14 melanoma) | TGI (RPMI-8226 leukemia) | TGI (K-562 leukemia) | TGI (A498 renal) | TGI (MDA-N) | TGI (SF-295 CNS) | TGI (OVCAR-8 ovarian) | TGI (786-0 renal) | TGI (NCI-H460 lung) | TGI (U251 CNS) | TGI (MDA-MB-231 breast) | TGI (UACC-62 melanoma) | TGI (NCI-H23 lung)

Cc1ccc(NC(=O)c2ccoc2)cc1-c1ccc(C(=O)NCC2CC2)cc1
> 17.1 µM: TGI (UO-31 renal)
> 25 µM: TGI (A549 NSCLC) | TGI (HOP-62 NSCLC) | TGI (ACHN renal) | TGI (PC-3 prostate) | TGI (SNB-75 CNS) | TGI (SN12C renal) | TGI (EKVX NSCLC) | TGI (HCT-15 colon) | TGI (MDA-MB-435) | TGI (T-47D breast) | TGI (UACC-257 melanoma) | TGI (NCI-H226 lung) | TGI (MALME-3M melanoma) | TGI (IGROV1 ovarian) | TGI (HCT-116 colon) | TGI (OVCAR-5 ovarian) | TGI (OVCAR-4 ovarian) | TGI (SF-268 CNS) | TGI (SK-MEL-5 melanoma) | TGI (NCI-H522 lung) | TGI (DU-145 prostate) | TGI (SK-OV-3 ovarian) | TGI (SR leukemia) | TGI (BT-549 breast) | TGI (TK-10 renal) | TGI (LOX IMVI melanoma) | TGI (SNB-19 CNS) | TGI (MOLT-4 leukemia) | TGI (SW-620 colon) | TGI (RXF 393 renal) | TGI (HCC-2998 colon) | TGI (SK-MEL-2 melanoma) | TGI (NCI/ADR-RES ovarian) | TGI (SF-539 CNS) | TGI (HS 578T breast) | TGI (SK-MEL-28 melanoma) | TGI (CAKI-1 renal) | TGI (MCF7 breast) | TGI (COLO 205 colon) | TGI (HL-60(TB) leukemia) | TGI (KM12 colon) | TGI (OVCAR-3 ovarian) | TGI (CCRF-CEM leukemia) | TGI (HOP-92 NSCLC) | TGI (HT29 colon) | TGI (M14 melanoma) | TGI (RPMI-8226 leukemia) | TGI (K-562 leukemia) | TGI (A498 renal) | TGI (SF-295 CNS) | TGI (OVCAR-8 ovarian) | TGI (786-0 renal) | TGI (NCI-H460 lung) | TGI (U251 CNS) | TGI (MDA-MB-231 breast) | TGI (UACC-62 melanoma) | TGI (NCI-H23 lung)
inactive: GI50 (A549 NSCLC) > 19.5 µM | GI50 (HOP-62 NSCLC) > 25 µM | GI50 (ACHN renal) > 25 µM | GI50 (PC-3 prostate) > 17 µM | GI50 (SNB-75 CNS) > 25 µM | GI50 (SN12C renal) > 25 µM | GI50 (EKVX NSCLC) > 13.5 µM | GI50 (HCT-15 colon) > 20.5 µM | GI50 (MDA-MB-435) > 25 µM | GI50 (T-47D breast) 7.16 µM | GI50 (UACC-257 melanoma) > 17.7 µM | GI50 (NCI-H226 lung) > 19.5 µM | GI50 (MALME-3M melanoma) > 12.9 µM | GI50 (IGROV1 ovarian) > 25 µM | GI50 (HCT-116 colon) > 25 µM | GI50 (OVCAR-5 ovarian) > 25 µM | GI50 (OVCAR-4 ovarian) > 18.8 µM | GI50 (SF-268 CNS) > 25 µM | GI50 (SK-MEL-5 melanoma) 7.75 µM | GI50 (NCI-H522 lung) > 15.9 µM | GI50 (DU-145 prostate) > 25 µM | GI50 (SK-OV-3 ovarian) > 25 µM | GI50 (SR leukemia) > 25 µM | GI50 (BT-549 breast) > 19.7 µM | GI50 (TK-10 renal) > 25 µM | GI50 (LOX IMVI melanoma) > 25 µM | GI50 (SNB-19 CNS) > 25 µM | GI50 (MOLT-4 leukemia) > 25 µM | GI50 (SW-620 colon) > 25 µM | GI50 (UO-31 renal) > 9.98 µM | GI50 (RXF 393 renal) > 25 µM | GI50 (HCC-2998 colon) > 25 µM | GI50 (SK-MEL-2 melanoma) > 25 µM | GI50 (NCI/ADR-RES ovarian) > 18.8 µM | GI50 (SF-539 CNS) > 25 µM | GI50 (HS 578T breast) > 19.3 µM | GI50 (SK-MEL-28 melanoma) > 25 µM | GI50 (CAKI-1 renal) > 25 µM | GI50 (MCF7 breast) > 16.1 µM | GI50 (COLO 205 colon) > 25 µM | GI50 (HL-60(TB) leukemia) > 20.4 µM | GI50 (KM12 colon) > 25 µM | GI50 (OVCAR-3 ovarian) > 17.9 µM | GI50 (CCRF-CEM leukemia) > 25 µM | GI50 (HOP-92 NSCLC) 8.76 µM | GI50 (HT29 colon) > 25 µM | GI50 (M14 melanoma) > 25 µM | GI50 (RPMI-8226 leukemia) > 16.2 µM | GI50 (K-562 leukemia) > 18.6 µM | GI50 (A498 renal) > 11.3 µM | GI50 (SF-295 CNS) > 14.8 µM | GI50 (OVCAR-8 ovarian) > 25 µM | GI50 (786-0 renal) > 25 µM | GI50 (NCI-H460 lung) > 24 µM | GI50 (U251 CNS) > 25 µM | GI50 (MDA-MB-231 breast) > 22.6 µM | GI50 (UACC-62 melanoma) 13.9 µM | GI50 (NCI-H23 lung) > 25 µM

Source: PubChem BioAssay (NCI)
